Read-outs that look alike come from different tables or passages of the source.
Assays:
Assay in all cases: Test C pre/postemergence
Assay type in all cases: in vivo
[1] = test system: crabgrass (Digitaria sanguinalis); details: Digitaria sanguinalis; for pest or weed control at 62 g/ha: 62 g ai/ha; for pest or weed control at 125 g/ha: 125 g ai/ha; for pest or weed control at 250 g/ha: 250 g ai/ha; for pest or weed control at 500 g/ha: 500 g ai/ha
Text: (§1) Seeds or nutlets of plant species selected from bermudagrass (Cynodon dactylon), Surinam grass (Brachiaria decumbens), cocklebur (Xanthium strumarium), corn (Zea mays), crabgrass (Digitaria sanguinalis), woolly cupgrass (Eriochloa villosa), giant foxtail (Setaria faberii), goosegrass (Eleusine indica), johnsongrass (Sorghum halepense), kochia (Kochia scoparia), lambsquarters (Chenopodium album), morningglory (Ipomoea coccinea), eastern black nightshade (Solanum ptycanthum), yellow nutsedge (Cyperus esculentus), pigweed (Amaranthus retroflexus), common ragweed (Ambrosia elatior), soybean (Glycine max), common (oilseed) sunflower (Helianthus annuus), and velvetleaf (Abutilon theophrasti) were planted and treated preemergence with test chemicals formulated in a non-phytotoxic solvent mixture which included a surfactant.
(§2) At the same time, plants selected from these crop and weed species and also winter barley (Hordeum vulgare), blackgrass (Alopecurus myosuroides), canarygrass (Phalaris minor), chickweed (Stellaria media), downy brome (Bromus tectorum), green foxtail (Setaria viridis), Italian ryegrass (Lolium multiflorum), wheat (Triticum aestivum), wild oat (Avena fatua) and windgrass (Apera spica-venti) were treated with postemergence applications of some of the test chemicals formulated in the same manner. Plants ranged in height from 2 to 18 cm (1- to 4-leaf stage) for postemergence treatments. Plant species in the flooded paddy test consisted of rice (Oryza sativa), umbrella sedge (Cyperus difformis), duck salad (Heteranthera limosa) and barnyardgrass (Echinochloa crus-galli) grown to the 2-leaf stage for testing. Treated plants and controls were maintained in a greenhouse for 12 to 14 days, after which time all species were compared to controls and visually evaluated. Plant response ratings, summarized in Table C, are based on a scale of 0 to 100 where 0 is no effect and 100 is complete control. A dash (-) response means no test result.

[2] = test system: johnsongrass (Sorghum halepense); details: Sorghum halepense; for pest or weed control at 62 g/ha: 62 g ai/ha; for pest or weed control at 125 g/ha: 125 g ai/ha; for pest or weed control at 250 g/ha: 250 g ai/ha; for pest or weed control at 500 g/ha: 500 g ai/ha
Text: as §1, §2

[3] = test system: cocklebur (Xanthium strumarium); details: Xanthium strumarium; for pest or weed control at 125 g/ha: 125 g ai/ha; for pest or weed control at 250 g/ha: 250 g ai/ha; for pest or weed control at 500 g/ha: 500 g ai/ha
Text: as §1, §2

[4] = test system: giant foxtail (Setaria faberii); details: Setaria faberi; for pest or weed control at 125 g/ha: 125 g ai/ha; for pest or weed control at 500 g/ha: 500 g ai/ha; for pest or weed control at 62 g/ha: 62 g ai/ha; for pest or weed control at 250 g/ha: 250 g ai/ha
Text: as §1, §2

soybean (Glycine max) = details: Glycine max; for plant injury at 62 g/ha: 62 g ai/ha; for plant injury at 125 g/ha: 125 g ai/ha; for plant injury at 250 g/ha: 250 g ai/ha; for plant injury at 500 g/ha: 500 g ai/ha
Text: as §1, §2

[5] = test system: lambsquarters (Chenopodium album); details: Chenopodium album, post-emergence, Postemergence, scale 0 to 100 (0 no effect, 100 complete control), read-out: Lambsquarters plant response rating
Text: as §1, §2

[6] = post-emergence, Postemergence, scale 0 to 100 (0 no effect, 100 complete control), read-out: Crabgrass plant response rating
[7] = post-emergence, Postemergence, scale 0 to 100, read-out: Plant response rating, Crabgrass
[8] = pre-emergence, Preemergence, scale 0 to 100, read-out: Plant response rating, Crabgrass
[9] = post-emergence, Postemergence, scale 0 to 100 (0 no effect, 100 complete control), read-out: Johnsongrass plant response rating
[10] = post-emergence, Postemergence, scale 0 to 100, read-out: Plant response rating, Johnsongrass
[11] = pre-emergence, Preemergence, scale 0 to 100, read-out: Plant response rating, Johnsongrass
[12] = post-emergence, Postemergence, scale 0 to 100, read-out: Plant response rating, Cocklebur
[13] = pre-emergence, Preemergence, scale 0 to 100, read-out: Plant response rating, Cocklebur
[14] = post-emergence, Postemergence, scale 0 to 100 (0 no effect, 100 complete control), read-out: Foxtail, Giant plant response rating
[15] = post-emergence, Postemergence, scale 0 to 100, read-out: Plant response rating, Foxtail, Giant
[16] = pre-emergence, Preemergence, scale 0 to 100, read-out: Plant response rating, Foxtail, Giant
[17] = post-emergence, Postemergence, scale 0 to 100 (0 no effect, 100 complete control), read-out: Soybean plant response rating
[18] = post-emergence, Postemergence, scale 0 to 100, read-out: Plant response rating, Soybean
[19] = pre-emergence, Preemergence, scale 0 to 100, read-out: Plant response rating, Soybean

Nc1nc(C2CC2)nc(C(=O)O)c1Br [Compound 8]
pest or weed control at 62 g/ha [1, 6]: 60%
pest or weed control at 125 g/ha [1, 6]: 65%
pest or weed control at 250 g/ha [1, 7]: 70%
pest or weed control at 500 g/ha [1, 7]: 75%
pest or weed control at 62 g/ha ([1]; pre-emergence, Preemergence, scale 0 to 100, 0 no effect, 100 complete control, read-out: Plant response rating, Crabgrass): 0%
pest or weed control at 125 g/ha [1, 8]: 0%
pest or weed control at 250 g/ha [1, 8]: 0%
pest or weed control at 500 g/ha [1, 8]: 0%
pest or weed control at 62 g/ha [2, 9]: 30%
pest or weed control at 125 g/ha [2, 9]: 35%
pest or weed control at 250 g/ha [2, 10]: 45%
pest or weed control at 500 g/ha [2, 10]: 85%
pest or weed control at 62 g/ha ([2]; pre-emergence, Preemergence, scale 0 to 100, 0 no effect, 100 complete control, read-out: Plant response rating, Johnsongrass): 0%
pest or weed control at 125 g/ha [2, 11]: 0%
pest or weed control at 250 g/ha [2, 11]: 0%
pest or weed control at 500 g/ha [2, 11]: 20%
pest or weed control at 62 g/ha ([3]; post-emergence, Postemergence, 62 g ai/ha, scale 0 to 100 (0 no effect, 100 complete control), read-out: Cocklebur plant response rating): 80%
pest or weed control at 125 g/ha ([3]; post-emergence, Postemergence, scale 0 to 100 (0 no effect, 100 complete control), read-out: Cocklebur plant response rating): 100%
pest or weed control at 250 g/ha [3, 12]: 100%
pest or weed control at 500 g/ha [3, 12]: 100%
pest or weed control at 125 g/ha [3, 13]: 85%
pest or weed control at 250 g/ha [3, 13]: 100%
pest or weed control at 500 g/ha [3, 13]: 100%
pest or weed control at 125 g/ha [4, 14]: 60%
pest or weed control at 500 g/ha [4, 15]: 75%
pest or weed control at 62 g/ha [4, 14]: 40%
pest or weed control at 250 g/ha [4, 15]: 70%
pest or weed control at 62 g/ha ([4]; pre-emergence, Preemergence, scale 0 to 100, 0 no effect, 100 complete control, read-out: Plant response rating, Foxtail, Giant): 0%
pest or weed control at 125 g/ha [4, 16]: 0%
pest or weed control at 250 g/ha [4, 16]: 0%
pest or weed control at 500 g/ha [4, 16]: 0%
plant injury at 62 g/ha (soybean (Glycine max); [17]): 95%
plant injury at 125 g/ha (soybean (Glycine max); [17]): 95%
plant injury at 250 g/ha (soybean (Glycine max); [18]): 100%
plant injury at 500 g/ha (soybean (Glycine max); [18]): 100%
plant injury at 62 g/ha (soybean (Glycine max); pre-emergence, Preemergence, scale 0 to 100, 0 no effect, 100 complete control, read-out: Plant response rating, Soybean): 100%
plant injury at 125 g/ha (soybean (Glycine max); [19]): 100%
plant injury at 250 g/ha (soybean (Glycine max); [19]): 100%
plant injury at 500 g/ha (soybean (Glycine max); [19]): 100%
pest or weed control at 62 g/ha ([5]; 62 g ai/ha): 75%
pest or weed control at 125 g/ha ([5]; 125 g ai/ha): 100%
